Assay results: US20100086483A1, “METHOD OF MULTIDETECTOR COMPUTED TOMAGRAPHY” (Gilead Palo Alto, Inc., priority 2008, published 2010)

What was measured:
conscious dogs = assay: Effects of caffeine on regadenoson-induced coronary vasodilation and changes in hemodynamics in conscious dogs (Part II); assay type: in vivo, dog; settings: for change of maximum increase in CBF induced by regadenoson vs control: regadenoson 5 μg/kg IV, p>0.05
Experimental: Sixteen chronically instrumented male mongrel dogs weighing from 22-30 kg were used in the study. The animal protocol was approved by the Institutional Animal Care and Use Committee of New York Medical College and conforms to the Guide for the Care and Use of Laboratory Animal by the United States National Institutes of Health.
Dogs were sedated with acepromazine (0.3 mg/kg, IM) and anesthetized with pentobarbital sodium (25 mg/kg, IV). After intubation, dogs were artificially ventilated with room air. A thoracotomy was made in the fifth intercostal space using sterile techniques. A Tygon catheter (Cardiovascular Instruments, Wakefield, Mass.) was inserted into the descending thoracic aorta and another one was inserted into the left atrium. In 9 dogs, an ultrasound flow transducer (Transonic Systems, Ithaca, N.Y.) was placed around the left circumflex coronary artery. A solid-state pressure gauge (P6.5, Konisberg Instruments, Pasadena, Calif.) was placed into the left ventricle through the apex. The chest was closed in layers. The catheters and wires were tunneled subcutaneously and externalized through the skin at the back of the dog's neck. Dogs were allowed to recover from the surgery before experiments were performed, and were trained to lie on a table.
Phasic arterial pressure was measured by connecting the aortic catheter to a strain gauge transducer (P23 ID, LDS Test and Measurement, Valley View, Ohio). Left ventricular pressures were measured by the solid pressure gauge. CBF (mL/min) was measured from an ultrasound flow transducer using a Transonic flowmeter (T206, Transonic Systems, Ithaca, N.Y.). Two indices were used to describe the regadenoson-induced coronary vasodilation: 1) the maximum increase in CBF and 2) the duration of the 2-fold increase in CBF (the period of time that CBF was elevated to a level ≧2-fold of baseline CBF). All pressure and flow data were acquired and analyzed using a Ponemah System (Version 3.30 or 4.20, LDS Test and Measurement, Valley View, Ohio). MAP and HR were calculated from phasic blood pressure, and LV dP/dtMax was calculated from the left ventricular systolic pressure.
On the day of an experiment, a dog was placed on a table, where it lay quietly during the experiment. A catheter was inserted into a peripheral vein in the leg and attached to an infusion line to administer drugs without disturbing the dog. The experiment was begun after MAP, HR and CBF were stable.
(§1) Each dog received an IV injection of 5 μg/kg of regadenoson. […] LVSP, LV dP/dtMax, MAP, HR and CBF were recorded continuously. Blood samples were taken from the left atrial catheter at 1, 3, 5, 15, 30, 45 and 60 min following injections of regadenoson.
In 4 dogs, two doses of regadenoson (5 μg/kg, IV) were given 90 min apart (without blood sampling) to determine if there is tachyphylaxis of regadenoson-induced coronary vasodilation.
The statistical significance of a difference between the value of a parameter at baseline and at the indicated time point after drug administration was determined using a One-Way Repeated Measures ANOVA followed by Tukey's Test. […] Results with p<0.05 were considered to be significant. […] All data are presented as Mean±SEM.

[1] = Plasma caffeine concentrations in conscious dogs; assay type: in vivo; settings: dog, intravenous, 10 mg/kg
Experimental: Three experiments were performed on each dog in the group.
as §1

[2] = regadenoson 5 μg/kg IV 45 min after caffeine 1 mg/kg IV, 1 min
[3] = regadenoson 5 μg/kg IV 45 min after caffeine 1 mg/kg IV, 2 min
[4] = regadenoson 5 μg/kg IV 45 min after caffeine 1 mg/kg IV, 3 min
[5] = regadenoson 5 μg/kg IV 45 min after caffeine 1 mg/kg IV, 20 min
[6] = regadenoson 5 μg/kg IV 45 min after caffeine 2 mg/kg IV, 1 min

With `Cn1c(=O)c2c(ncn2C)n(C)c1=O` [Caffeine, caffeine] the HR (conscious dogs; 45 min after caffeine 1 mg/kg IV, before regadenoson (baseline)) was 74 ± 5 bpm, the HR (conscious dogs; 45 min after caffeine 2 mg/kg IV, before regadenoson (baseline)) was 75 ± 5 bpm and the HR (conscious dogs; 45 min after caffeine 4 mg/kg IV, before regadenoson (baseline)) was 81 ± 9 bpm. For the same molecule, the HR (conscious dogs; 45 min after caffeine 10 mg/kg IV, before regadenoson (baseline)) was 78 ± 6 bpm, the “baseline CBF before vs after caffeine treatment” value (conscious dogs; 45 min after caffeine 1, 2, 4 and 10 mg/kg) was “not significantly different” and the “change of maximum increase in CBF induced by regadenoson vs control” value (shortened to “change of maximum increase”) (conscious dogs; caffeine 1 mg/kg IV) was 2±3%. For the same molecule, the “change of maximum increase” value (conscious dogs; caffeine 2 mg/kg IV) was −0.7±3%, the “change of maximum increase” value (conscious dogs; caffeine 4 mg/kg IV) was −16±5% and the “change of maximum increase” value (conscious dogs; caffeine 10 mg/kg IV) was −13±8%. For the same molecule, the “effect on hemodynamics at 45 min following caffeine administration” value (conscious dogs; caffeine at 1, 2, 4 or 10 mg/kg) was “did not alter hemodynamics significantly”, the “regadenoson-induced increase in LV dP/dtMax vs without caffeine” value (conscious dogs; in the presence of caffeine 1 mg/kg) was “slightly greater” and the “regadenoson-induced increase in LV dP/dtMax vs without caffeine” value (conscious dogs; in the presence of caffeine 10 mg/kg) was “not altered”. The “regadenoson-induced increase in LV dP/dtMax vs without caffeine” value (conscious dogs; in the presence of caffeine at 2 and 4 mg/kg) was “slightly smaller”, the HR (conscious dogs; regadenoson 5 μg/kg IV 45 min after caffeine 1 mg/kg IV, 0.5 min) was 126 ± 7 bpm and the HR (conscious dogs; [2]) was 135 ± 9 bpm. It also gave an MAP (conscious dogs; [2]) of 100 ± 4 mm Hg, an HR (conscious dogs; [3]) of 131 ± 12 bpm and an MAP (conscious dogs; [3]) of 102 ± 4 mm Hg. For the same molecule, the HR (conscious dogs; [4]) was 119 ± 9 bpm, the MAP (conscious dogs; [4]) was 101 ± 5 mm Hg and the HR (conscious dogs; regadenoson 5 μg/kg IV 45 min after caffeine 1 mg/kg IV, 4 min) was 110 ± 4 bpm. The HR (conscious dogs; regadenoson 5 μg/kg IV 45 min after caffeine 1 mg/kg IV, 5 min) was 106 ± 7 bpm, the HR (conscious dogs; regadenoson 5 μg/kg IV 45 min after caffeine 1 mg/kg IV, 10 min) was 89 ± 7 bpm and the HR (conscious dogs; regadenoson 5 μg/kg IV 45 min after caffeine 1 mg/kg IV, 15 min) was 87 ± 7 bpm. The HR (conscious dogs; [5]) was 81 ± 8 bpm, the MAP (conscious dogs; [5]) was 102 ± 4 mm Hg and the HR (conscious dogs; regadenoson 5 μg/kg IV 45 min after caffeine 2 mg/kg IV, 0.5 min) was 121 ± 10 bpm. It also gave an HR (conscious dogs; [6]) of 125 ± 10 bpm, an MAP (conscious dogs; [6]) of 102 ± 7 mm Hg and an HR (conscious dogs; regadenoson 5 μg/kg IV 45 min after caffeine 2 mg/kg IV, 2 min) of 122 ± 5 bpm. For the same molecule, the HR (conscious dogs; regadenoson 5 μg/kg IV 45 min after caffeine 2 mg/kg IV, 3 min) was 110 ± 3 bpm, the HR (conscious dogs; regadenoson 5 μg/kg IV 45 min after caffeine 2 mg/kg IV, 4 min) was 106 ± 4 bpm and the HR (conscious dogs; regadenoson 5 μg/kg IV 45 min after caffeine 2 mg/kg IV, 5 min) was 97 ± 3 bpm. For the same molecule, the HR (conscious dogs; regadenoson 5 μg/kg IV 45 min after caffeine 2 mg/kg IV, 10 min) was 84 ± 5 bpm, the HR (conscious dogs; regadenoson 5 μg/kg IV 45 min after caffeine 2 mg/kg IV, 15 min) was 85 ± 6 bpm and the HR (conscious dogs; regadenoson 5 μg/kg IV 45 min after caffeine 2 mg/kg IV, 20 min) was 84 ± 5 bpm. For the same molecule, the HR (conscious dogs; regadenoson 5 μg/kg IV 45 min after caffeine 4 mg/kg IV, 0.5 min) was 126 ± 12 bpm, the HR (conscious dogs; regadenoson 5 μg/kg IV 45 min after caffeine 4 mg/kg IV, 1 min) was 114 ± 11 bpm and the HR (conscious dogs; regadenoson 5 μg/kg IV 45 min after caffeine 4 mg/kg IV, 2 min) was 106 ± 12 bpm. It also gave an HR (conscious dogs; regadenoson 5 μg/kg IV 45 min after caffeine 4 mg/kg IV, 3 min) of 102 ± 7 bpm, an HR (conscious dogs; regadenoson 5 μg/kg IV 45 min after caffeine 4 mg/kg IV, 4 min) of 94 ± 8 bpm and an HR (conscious dogs; regadenoson 5 μg/kg IV 45 min after caffeine 4 mg/kg IV, 5 min) of 94 ± 7 bpm. For the same molecule, the HR (conscious dogs; regadenoson 5 μg/kg IV 45 min after caffeine 4 mg/kg IV, 10 min) was 85 ± 8 bpm, the HR (conscious dogs; regadenoson 5 μg/kg IV 45 min after caffeine 4 mg/kg IV, 15 min) was 85 ± 8 bpm and the HR (conscious dogs; regadenoson 5 μg/kg IV 45 min after caffeine 4 mg/kg IV, 20 min) was 87 ± 7 bpm. For the same molecule, the HR (conscious dogs; regadenoson 5 μg/kg IV 45 min after caffeine 10 mg/kg IV, 0.5 min) was 115 ± 12 bpm, the HR (conscious dogs; regadenoson 5 μg/kg IV 45 min after caffeine 10 mg/kg IV, 1 min) was 102 ± 6 bpm and the HR (conscious dogs; regadenoson 5 μg/kg IV 45 min after caffeine 10 mg/kg IV, 2 min) was 106 ± 11 bpm. The HR (conscious dogs; regadenoson 5 μg/kg IV 45 min after caffeine 10 mg/kg IV, 3 min) was 96 ± 7 bpm, the HR (conscious dogs; regadenoson 5 μg/kg IV 45 min after caffeine 10 mg/kg IV, 4 min) was 94 ± 8 bpm and the HR (conscious dogs; regadenoson 5 μg/kg IV 45 min after caffeine 10 mg/kg IV, 5 min) was 93 ± 5 bpm. The HR (conscious dogs; regadenoson 5 μg/kg IV 45 min after caffeine 10 mg/kg IV, 10 min) was 88 ± 7 bpm, the HR (conscious dogs; regadenoson 5 μg/kg IV 45 min after caffeine 10 mg/kg IV, 15 min) was 88 ± 6 bpm and the HR (conscious dogs; regadenoson 5 μg/kg IV 45 min after caffeine 10 mg/kg IV, 20 min) was 86 ± 4 bpm. For the same molecule, the concentration at 45 min [1] was 52 ± 2 µM.
